Key:
[1] = system: Carrageenin edema; experiment: Antiinflammatory action (Carrageenin edema method); format: in vivo, Jcl: SD rats; conditions: Rattus norvegicus; 50 mg/kg oral, one hour before carrageenin; paw volume 3 hours later; rats; read-out: Inhibition rate, Carrageenin edema
Experimental: (1) Antiinflammatory action (Carrageenin edema method)
Using a group of six Jcl: SD rats (6 week old, male), antiinflammatory action was investigated in accordance with the method of Winter et al. [Proc. Soc. Exp. Biol. Med., 111, 544(1962)]. One hour after the oral administration of 50 mg/kg of a test sample, the animals were injected subcutaneously with 0.05 ml each of a 1% solution of carrageenin in physiological saline solution into a sole. The volume of the hind-paw was measured 3 hours later and compared with that before the injection, and the edema volume was determined from the difference. By comparing the edema volumes of animal groups untreated and treated with test samples, the inhibition rate was determined.

[2] = system: Reversed passive Arthus reaction; experiment: Antiinflammatory action (Reversed passive Arthus reaction); format: in vivo, Jcl: SD rats; conditions: Rattus norvegicus, 1 h; 12.5 mg/kg oral, one hour before the injection of egg albumin; rats; read-out: Inhibition rate, Reversed passive Arthus reaction
Experimental: (2) Antiinflammatory action (Reversed passive Arthus reaction)
A group consisting of six Jcl: SD rats (7 week old, male was used. The hair of the back of the animals was cut, under ether anesthesia, and 1 ml each of a 0.5% solution of egg albumin in physiological saline solution was injected into the tail vein of each test animal, followed by intradermal injection of 0.1 ml of rabbit anti-egg albumin antiserum at each side of the left and right of the back and a further intradermal injection of 0.1 ml of physiological saline solution at the left side. Three hours later, each animal was intravenously injected with 1 ml of 1% Evans' blue physiological saline solution. Thirty minutes later, the test animals were exfoliated and the area(mm^2) of each of the blue spot was measured. The test sample in a dose of 12.5 mg/kg was orally administered one hour before the injection of egg albumin. By comparing the area(mm^2) of the blue spot in the test group with that of the control group, inhibition rate was determined.

[3] = system: Phenyl quinone writhing; experiment: Analgesic action (Phenyl quinone writhing method); format: in vivo, Slc: ICR mice; conditions: Mus musculus, 20 min; 50 mg/kg oral, 30 minutes before phenyl quinone; 20 minutes counting; mice; read-out: Inhibition rate, Phenyl quinone writhing
Experimental: Analgesic action (Phenyl quinone writhing method)
Using a group of 10 Slc: ICR mice (4 week old, male), analgesic action was investigated in accordance with the method of Siegmund et al. [Proc. Soc. Exp. Biol. Med., 95, 729(1957)]. A test sample in a dose of 50 mg/kg was orally administered, and 30 minutes later, a 0.02% aqueous phenyl quinone solution was intraperitoneally injected in the proportion of 0.1 ml relative to 10 g of body weight. Over the period of 20 minutes from the injection, the number of writhings was counted for the individual animals. By comparing the untreated and treated animal groups for the number of reactions, the writhing inhibition rate was determined.

[4] = system: Jcl: ICR mice; conditions: mouse, in vivo
Experimental: A group of 5 Jcl: Wistar rats (5 week old, 90-110 g body weight, Japan Clea, male) and a group of 5 Jcl: ICR mice (5 week old, 25-30 g body weight, Japan Clea, male) were used. These rats were each administerred orally with 10 ml/kg of the test compound (250 mg/kg), while these mice were each administered orally with 20 ml/kg of the test compound (500 mg/kg).
These oral administrations were made on the form of a suspension in 5% gum arabic vehicle. One week later, the number of dead animals was observed.

[5] = system: acute hepatic failure due to P. acnes-LPS; experiment: Effect against acute hepatic failure due to P. acnes-LPS (anti-lethal effect); format: in vivo, BALB/c mice; conditions: 0.3 mg/kg, p.o., one hour prior to LPS, 48 hours later; for Anti-lethal effect: Number of dead mice: group of 10, control 10 dead
Experimental: A group of 10 BALB/c mice (7 week old, male) was used. Each mouse was injected into the tail vein with P. acnes killed by heating at a dose of 1 mg/mouse. Seven days later, each mouse was injected intravenously with LPS(1 l μg/mouse) derived from Salmonella enteritidis to cause acute hepatic failure. Usually, in a group of mice intravenously injected with LPS, 90% to 100% of the animals die within 24 hours. Using this model, each compound was tested. Each compound(I) shown in Table 2 was suspended in a 5% gum arabic vehicle and was orally administered to the animals at 0.3 mg/kg one hour prior to the injection of LPS, and then 48 hours later, the number of the dead mice was determined. The mice in the control group were orally given the 5% gum arabic vehicle one hour prior to LPS administration.

CCCCn1c(=O)n(CCC)c(=O)c2c3n(nc21)CCN3C [compound 1] gave an inhibition in vivo at 50 mg/kg [1] of 70%, an inhibition in vivo at 12.5 mg/kg [2] of 32% and an inhibition in vivo at 50 mg/kg [3] of 97%.
Work on CCCCn1c(=O)n(CCC)c(=O)c2c3n(nc21)CCN3 [compound 2] yielded an inhibition in vivo at 50 mg/kg [1] of 103%, an inhibition in vivo at 12.5 mg/kg [2] of 65% and an inhibition in vivo at 50 mg/kg [3] of 100%.
Work on CCCCn1c(=O)c2c3n(nc2n(CCCC)c1=O)CCN3 [compound 3] yielded an inhibition in vivo at 50 mg/kg [1] of 100%, an inhibition in vivo at 12.5 mg/kg [2] of 68% and an inhibition in vivo at 50 mg/kg [3] of 98%.
Compound CCCCCn1c(=O)n(CCC)c(=O)c2c3n(nc21)CCN3 [compound 6] has an inhibition in vivo at 50 mg/kg [1] of 105%, an inhibition in vivo at 12.5 mg/kg [2] of 71% and an inhibition in vivo at 50 mg/kg [3] of 96%.
CCn1c(=O)c2c3n(nc2n(CC)c1=O)CCN3 [compound 7] showed an inhibition in vivo at 50 mg/kg [1] of 99%, an inhibition in vivo at 12.5 mg/kg [2] of 42% and an inhibition in vivo at 50 mg/kg [3] of 52%.
For CCCn1c(=O)c2c3n(nc2n(CC)c1=O)CCN3 [compound 10], the inhibition in vivo at 50 mg/kg [1] was 100%, the inhibition in vivo at 12.5 mg/kg [2] was 36% and the inhibition in vivo at 50 mg/kg [3] was 87%.
In the case of CCCn1c(=O)c2c3n(nc2n(CCC)c1=O)CCN3 [compound 13], the inhibition in vivo at 50 mg/kg [1] is reported as 97%, the inhibition in vivo at 12.5 mg/kg [2] is reported as 65% and the inhibition in vivo at 50 mg/kg [3] is reported as 95%. For the same compound, the “number of dead animals, Mice” value [4] was 0.
With CCCn1c(=O)c2c3n(nc2n(CCC(C)C)c1=O)CCN3 [compound 17] the inhibition in vivo at 50 mg/kg [1] was 83%, the inhibition in vivo at 12.5 mg/kg [2] was 73% and the inhibition in vivo at 50 mg/kg [3] was 79%.
C=CCn1c(=O)n(CCC)c(=O)c2c3n(nc21)CCN3 [compound 18] gave an inhibition in vivo at 50 mg/kg [1] of 93%, an inhibition in vivo at 12.5 mg/kg [2] of 87% and an inhibition in vivo at 50 mg/kg [3] of 90%.
For C=CCn1c(=O)c2c3n(nc2n(CC=C)c1=O)CCN3 [compound 29], the inhibition in vivo at 50 mg/kg [1] was 79%, the inhibition in vivo at 12.5 mg/kg [2] was 73% and the inhibition in vivo at 50 mg/kg [3] was 80%.
Compound CCCn1c(=O)c2c3n(nc2n(CCC)c1=O)CCN3C(=O)CC [compound 33] has an inhibition in vivo at 50 mg/kg [1] of 87%, an inhibition in vivo at 12.5 mg/kg [2] of 87% and an inhibition in vivo at 50 mg/kg [3] of 77%.
With CCCCn1c(=O)n(CCC)c(=O)c2c3n(nc21)CCN3C(C)=O [compound 40] the inhibition in vivo at 50 mg/kg [1] was 82%, the inhibition in vivo at 12.5 mg/kg [2] was 69% and the inhibition in vivo at 50 mg/kg [3] was 89%. The “number of dead animals, Mice” value [4] was 0.
CCCCn1c(=O)n(CCC)c(=O)c2c1nn1cc[nH]c21 [compound 43] gave an inhibition in vivo at 50 mg/kg [1] of 109%, an inhibition in vivo at 12.5 mg/kg [2] of 90% and an inhibition in vivo at 50 mg/kg [3] of 89%. The “Anti-lethal effect: effective ratio” value [5] was 100% and the “Anti-lethal effect: Number of dead mice” value [5] was 0.
With CCCn1c(=O)c2c(nn3cc[nH]c23)n(CCC)c1=O [compound 44] the inhibition in vivo at 50 mg/kg [1] was 90%, the inhibition in vivo at 12.5 mg/kg [2] was 91% and the inhibition in vivo at 50 mg/kg [3] was 96%. For the same compound, the “Anti-lethal effect: effective ratio” value [5] was 100% and the “Anti-lethal effect: Number of dead mice” value [5] was 0.
In the case of C=CCn1c(=O)c2c(nn3cc[nH]c23)n(CC=C)c1=O [compound 45], the inhibition in vivo at 50 mg/kg [1] is reported as 85%, the inhibition in vivo at 12.5 mg/kg [2] is reported as 74% and the inhibition in vivo at 50 mg/kg [3] is reported as 87%. The “Anti-lethal effect: effective ratio” value [5] was 100% and the “Anti-lethal effect: Number of dead mice” value [5] was 0.
CCCCn1c(=O)c2c(nn3cc[nH]c23)n(CCCC)c1=O [compound 46] was tested, and the inhibition in vivo at 50 mg/kg [1] was 90%, the inhibition in vivo at 12.5 mg/kg [2] was 70% and the inhibition in vivo at 50 mg/kg [3] was 96%. The “Anti-lethal effect: effective ratio” value [5] was 80% and the “Anti-lethal effect: Number of dead mice” value [5] was 2.
Compound CCCn1c(=O)c2c(nn3cc[nH]c23)n(CC(C)C)c1=O [compound 48] has an inhibition in vivo at 50 mg/kg [1] of 95%, an inhibition in vivo at 12.5 mg/kg [2] of 93% and an inhibition in vivo at 50 mg/kg [3] of 91%. For the same compound, the “Anti-lethal effect: effective ratio” value [5] was 90% and the “Anti-lethal effect: Number of dead mice” value [5] was 1.
Compound C=CCn1c(=O)n(CCC)c(=O)c2c1nn1cc[nH]c21 [compound 49] has an inhibition in vivo at 50 mg/kg [1] of 80%, an inhibition in vivo at 12.5 mg/kg [2] of 88% and an inhibition in vivo at 50 mg/kg [3] of 80%. The “Anti-lethal effect: effective ratio” value [5] was 70% and the “Anti-lethal effect: Number of dead mice” value [5] was 3.
With CCCCCn1c(=O)n(CCC)c(=O)c2c1nn1cc[nH]c21 [compound 50] the inhibition in vivo at 50 mg/kg [1] was 78%, the inhibition in vivo at 12.5 mg/kg [2] was 79% and the inhibition in vivo at 50 mg/kg [3] was 89%. The “Anti-lethal effect: effective ratio” value [5] was 90% and the “Anti-lethal effect: Number of dead mice” value [5] was 1.

Source: patent publication US4912104A, “Tricyclic fused pryimidine derivatives, and their use as pharmaceuticals” (Takeda Chemical Industries, Ltd., priority 1987, dated 1990)
